Results taken from patent US5312833A, “Method of inhibiting tumor growth using xanthocillin X dimethylether” (Meiji Seika Kaisha, Ltd., priority 1990, dated 1994).
Converted amounts (≈) assume the structure as drawn.

How the values were obtained:
prostaglandin synthesis = details: literature; cited from earlier work
B16 = assay: In vitro cytotoxicity, MTT assay, B16; assay type: cell-based; details: Mus musculus, 72 h, 3 days incubation, read-out: IC50 (drug concentration to kill 50% of the cells)
Procedure: (§1) The effect of a preparation containing xanthocillin X dimethylether on cancer cells was determined by an in vitro test. For a medium, the Modified Dulbecco Minimum Essential Medium combined with 10% fetal serum was placed in a culture dish. The cytotoxic activity was observed on various cancer cells (set forth in Table 1 below) that were serially cultured in this medium in a CO2 incubator. First, the respective cancer cells were suspended in the aforementioned culture medium at a concentration of 5×10^4 cells/ml. Then 135 μl of the suspension was added to a micro-titer plate having 96 wells. Next, 15 μl of the test compound solution was added, and the plates were incubated in CO2 for 3 days. The survival of the cells after the incubation period was determined by the MTT assay (Igaku no Ayumi, Vol. 128, pages 733-735, 1984).

cancer cells = assay: In vitro cytotoxicity on various cancer cells (MTT assay), summary; assay type: cell-based; details: as indicated in Table 1
Procedure: as §1

[1] = Acute toxicity in Balb/c mice; details: mouse, in vivo, ip, injected into the peritoneal cavity, 7-week-old females, survival over 2 weeks, suspension in 1% CMC
Procedure: Xanthocillin X dimethylether (by way of the same suspension as used in Example 3) was injected into the peritoneal cavity of Balb/c mice (7-week-old females). The animals were reared for the next 2 weeks and their survival was recorded.

Meth-A = assay: In vitro cytotoxicity, MTT assay, Meth-A; assay type: cell-based, murine; details: Mus musculus, 72 h, 3 days incubation, read-out: IC50 (drug concentration to kill 50% of the cells)
Procedure: as §1

[2] = tested on: Lewis carcinoma of the lung; assay: In vitro cytotoxicity, MTT assay, Lewis carcinoma of the lung; assay type: cell-based; details: 72 h, 3 days incubation, read-out: IC50 (drug concentration to kill 50% of the cells)
Procedure: as §1

Meth-A solid tumor = assay: Suppression of growth of Meth-A solid tumor in Balb/c mice; assay type: in vivo
Procedure: 0.1 ml of 10^7 cells/ml of murine fibrosarcoma Meth-A (ascites) were inoculated subcutaneously into Balb/c mice (6-week-old, females) and the test agent was injected intraperitoneally into the mice on the next day.
The test compound had been thoroughly pulverized in a mortar, suspended in 1% carboxymethylcellulose (CMC), and mixed well using ultrasonic. The test compound was administered once daily for 4 consecutive days. Following 2 weeks of rearing, the tumor on the back was excised and its weight was recorded. The percentage by which tumor development was suppressed was computed as follows: {(tumor weight of the control-tumor weight of the test group)/tumor weight of the control group}×100.

P388 = assay: In vitro cytotoxicity, MTT assay, P388; assay type: cell-based; details: Mus musculus, 72 h, 3 days incubation, read-out: IC50 (drug concentration to kill 50% of the cells)
Procedure: as §1

## [C-]#[N+]C(=Cc1ccc(OC)cc1)C(=Cc1ccc(OC)cc1)[N+]#[C-] [xanthocillin X dimethylether]
Prostaglandin synthesis
  inhibition of prostaglandin synthesis (in words): specific inhibitor of prostaglandin synthesis
B16
  IC50: 0.45 µg/mL (≈ 1.42 µM)
Cancer cells
  cytotoxicity to a series of cancer cells (in words): cytotoxic to a series of cancer cells
[1]
  LD50 at 336 h: > 120 mg/kg
Meth-A
  IC50: 0.71 µg/mL (≈ 2.24 µM)
[2]
  IC50: 0.46 µg/mL (≈ 1.45 µM)
Meth-A solid tumor; 30 mg/kg/day intraperitoneally, once daily for 4 consecutive days, after 2 weeks, computed from tumor weights versus control (1% CMC)
  Percentage suppression of tumor growth: 88.5 Percentage
Meth-A solid tumor; 30 mg/kg/day intraperitoneally, once daily for 4 consecutive days, tumor excised after 2 weeks, mean ± standard deviation, control 0.96 ± 0.60 g
  Tumor weight: 0.11 ± 0.10 g
Meth-A solid tumor; as shown in Table 2
  suppression of growth of Meth-A solid tumors (in words): markedly suppressed the growth of Meth-A solid tumors
P388
  IC50: 0.67 µg/mL (≈ 2.12 µM)
